By IC50 is commonly meant the point on the concentration scale where inhibition reaches its midpoint.

In data set [1] the test system is Plasmodium falciparum. Put plainly: Antimalarial activity against Plasmodium falciparum 3D7 assessed as reduction in parasite growth incubated for 48 to 50 hrs by microplate reader analysis. The class given is functional, organism-based.
In data set [2] the test system is Erythrocyte. As to the kind of experiment: Hemolytic activity in human RBCs at 100 uM incubated for 2 hrs by microplate reader analysis. Format: toxicity, cell-based.
Data set [3] can be described thus: Selectivity index, ratio of IC50 for cytotoxicity against african green monkey vero cells to IC50 for antimalarial activity against Plasmodium falciparum 3D7. The class given is toxicity, cell-based. The settings on record: read-out: Ratio IC50.
Data set [4] can be described thus: Selectivity index, ratio of IC50 for cytotoxicity against african green monkey vero cells to IC50 for antimalarial activity against Plasmodium falciparum W2. The settings on record: read-out: Ratio IC50. Format: toxicity, cell-based.
Data set [5] deals with Plasmodium falciparum. As to the kind of experiment: Antimalarial activity against Plasmodium falciparum W2 assessed as reduction in parasite growth incubated for 48 to 50 hrs by microplate reader analysis. Format: functional, organism-based.
Data set [6] relates to Plasmodium falciparum. Put plainly: Resistance index, ratio of IC50 for antimalarial activity against Plasmodium falciparum 3D7 to IC50 for antimalarial activity against Plasmodium falciparum W2. Format: functional.
The target of data set [7] is T1, Falcipain 2 (Plasmodium falciparum, UniProt Q9N6S8).
T1 sequence (Q9N6S8 whole entry): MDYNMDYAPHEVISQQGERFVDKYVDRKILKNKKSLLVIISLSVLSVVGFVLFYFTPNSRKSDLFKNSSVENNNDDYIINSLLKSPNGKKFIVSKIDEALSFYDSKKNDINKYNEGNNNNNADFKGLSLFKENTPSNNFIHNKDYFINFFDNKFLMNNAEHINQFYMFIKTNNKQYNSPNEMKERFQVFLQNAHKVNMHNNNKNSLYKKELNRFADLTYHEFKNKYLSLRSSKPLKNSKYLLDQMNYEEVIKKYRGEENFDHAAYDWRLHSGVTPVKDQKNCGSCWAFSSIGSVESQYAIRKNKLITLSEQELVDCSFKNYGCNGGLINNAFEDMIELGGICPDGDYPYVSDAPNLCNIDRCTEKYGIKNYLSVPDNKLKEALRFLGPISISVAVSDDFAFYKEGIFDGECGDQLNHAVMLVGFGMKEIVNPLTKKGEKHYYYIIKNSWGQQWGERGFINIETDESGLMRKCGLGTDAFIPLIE
As to the kind of experiment: Inhibition of Plasmodium falciparum FP2 using Z-Leu-Arg-AMC as substrate incubated for 30 mins by spectrofluorometry analysis.

Data set [8] deals with T2, Falcipain-3 (Plasmodium falciparum 3D7, UniProt Q8IIL0).
T2 sequence (Q8IIL0 whole entry): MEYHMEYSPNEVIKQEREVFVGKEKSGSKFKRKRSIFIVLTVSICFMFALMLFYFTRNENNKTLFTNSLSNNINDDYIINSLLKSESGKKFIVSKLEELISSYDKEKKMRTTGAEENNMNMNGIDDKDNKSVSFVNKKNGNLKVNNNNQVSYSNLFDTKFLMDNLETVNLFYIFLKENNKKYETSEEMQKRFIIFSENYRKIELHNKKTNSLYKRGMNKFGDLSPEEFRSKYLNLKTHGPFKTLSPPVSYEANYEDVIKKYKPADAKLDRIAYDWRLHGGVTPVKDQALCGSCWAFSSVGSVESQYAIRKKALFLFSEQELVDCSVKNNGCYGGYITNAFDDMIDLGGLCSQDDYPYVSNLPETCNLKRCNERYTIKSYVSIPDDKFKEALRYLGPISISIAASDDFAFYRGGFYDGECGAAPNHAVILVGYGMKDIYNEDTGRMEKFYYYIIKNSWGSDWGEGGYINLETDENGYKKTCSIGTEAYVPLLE
Put plainly: Inhibition of Plasmodium falciparum FP3 using Z-Leu-Arg-AMC as substrate incubated for 30 mins by spectrofluorometry analysis.

Data set [9] has as its system Vero. As to the kind of experiment: Cytotoxicity against african green monkey Vero cells upto 1000 uM measured after 72 hrs by MTT assay. Format: toxicity, cell-based. The settings on record: chlorocebus sabaeus. On the technique in general: Tetrazolium dyes change colour on reduction, which living cells bring about.
Data set [10] concerns A549. Put plainly: Anticancer activity against human A549 cells measured after 24 hrs by MTT assay. The note with it: A549, 24 h. The class given is functional, cell-based.
Data set [11] is described as follows: Selectivity index, ratio of IC50 for cytotoxicity against human A549 cells to IC50 for antimalarial activity against Plasmodium falciparum 3D7. Format: toxicity, cell-based. The settings on record: read-out: Ratio IC50.
The nature of data set [12]: Selectivity index, ratio of IC50 for cytotoxicity against human A549 cells to IC50 for antimalarial activity against Plasmodium falciparum W2. The class given is toxicity, cell-based. The note with it: read-out: Ratio IC50.
Data set [13] in a line: Selectivity index, ratio of IC50 for cytotoxicity against african green monkey vero cells to IC50 for cytotoxicity against human A549 cells.
The subject of data set [14] is Plasmodium falciparum. Put plainly: Antimalarial activity against Plasmodium falciparum 3D7 assessed as decrease in development of early trophozoite stage at 3 times IC50 incubated for 48 hrs by Geimsa staining based analysis. Format: functional, organism-based.
The subject of data set [15] is Plasmodium falciparum. Put plainly: Antimalarial activity against Plasmodium falciparum 3D7 assessed as decrease in new ring formation at 3 times IC50 concentration incubated for 48 hrs by Geimsa staining based analysis. Format: functional, organism-based.
For data set [16], the system named is Plasmodium falciparum. Put plainly: Antimalarial activity against Plasmodium falciparum 3D7 assessed as inhibition of parasite growth incubated for 72 hrs by confocal microscopy analysis. The class given is functional, organism-based. The note with it: 3D7, 72 h.
Data set [17] deals with Plasmodium falciparum. Put plainly: Antimalarial activity against Plasmodium falciparum Dd2 assessed as inhibition of parasite growth incubated for 72 hrs by confocal microscopy analysis. The class given is functional, organism-based. The note with it: Dd2, 72 h.
The test system of data set [18] is Plasmodium falciparum. Put plainly: Antimalarial activity against ring stage Plasmodium falciparum 3D7 infected in human erythrocytes incubated for 48 to 50 hrs by YOYO-1 staining based FACS analysis. The class given is functional, organism-based. The note with it: 3D7, Erythrocyte.
Where [19] appears, read: Plasmodium falciparum, 3D7, read-out: IC50.

The source made the active and inactive calls. No cut-off for these calls is given here. Where only a bound is given, the exact number is not on record here.

Take `COc1ccc(C(c2cccc(OC)c2O)N2CCN(c3cnccn3)CC2)cc1` (stereo not given): the 50% inhibitory concentration (IC50) in data set [1] (setting [19]) was above 12.5 µM. Besides, the Activity result in data set [2] is given as “Non-Toxic”.
In the case of `COc1cccc(C(c2ccc(F)c(F)c2)N2CCN(c3cnccn3)CC2)c1O` (stereo not given), the selectivity ratio in data set [3] came out at 74.1; in [4], 129; in data set [11], 15.1; in [12], 26.1. Also, the IC50 in data set [1] (setting [19]) was 13.5 µM; in data set [5], 7.78 µM; in data set [7], 24.3 µM; in data set [8], 27.6 µM; in data set [10] it was 203 µM. The Ratio IC50 in data set [6] was 1.73; in data set [13] it was 4.92. Besides, the Activity entry in data set [9] and in [2] was “Non-Toxic” throughout.
Regarding `COc1ccc(C(c2ccccc2O)N2CCN(c3cnccn3)CC2)cc1` (stereo not given), the selectivity ratio in data set [3] turned out to be 58.1; in [4], 467; in [11] it was 29.9; in data set [12] it was 240. In addition, the IC50 is 17.2 µM in data set [1] (setting [19]); 2.14 µM in data set [5]; 31.1 µM in data set [7]; 33.9 µM in data set [8]; 514 µM in [10]. Also, the Ratio IC50 in data set [6] is 8.04; in [13] it was 1.95. For the same compound, the result in [14] and in data set [15] was Active. Moreover, the Activity result in data set [9] and in [2] was “Non-Toxic” each time.
Turning to `COc1cccc(C(c2ccc(C)cc2)N2CCN(c3cnccn3)CC2)c1O` (stereo not given), the half-inhibitory concentration (IC50) in [1] (setting [19]) was above 12.5 µM. In data set [2], the Activity entry is “Non-Toxic”.
As to `Oc1ccccc1C(c1ccc(OC(F)(F)F)cc1)N1CCN(c2cnccn2)CC1` (stereo not given), the selectivity ratio in [3] was 357; in data set [4], 295; in [11], 32.8; in [12] it was 27.1. Also, the concentration for half-maximal inhibition (IC50) came out at 2.8 µM in [1] (setting [19]); 3.39 µM in data set [5]; 5.9 µM in data set [7]; 6.4 µM in data set [8]; 91.8 µM in [10]. Further, the Ratio IC50 in data set [6] amounted to 0.83; in data set [13] it was 10.89. The result in data set [14] and in data set [15] was Active. Further, the Activity entry in data set [9] and in [2] was “Non-Toxic” in each case.
Take `COc1cccc(C(c2ccc(OC(F)(F)F)cc2)N2CCN(c3cnccn3)CC2)c1O` (stereo not given): the selectivity ratio in [3] is 286; in [4], 459; in data set [11] it was 13.5; in [12] it was 21.6. Also, the IC50 stood at 3.5 µM in [1] (setting [19]); 2.18 µM in data set [5]; 11.4 µM in data set [7]; 14.4 µM in [8]; 47.1 µM in data set [10]. Moreover, the Ratio IC50 in data set [6] was determined as 1.6; in [13] it was 21.23. Besides, the Activity entry in data set [9] and in data set [2] was “Non-Toxic” each time.
In the case of `Cc1ccc(C(c2ccccc2O)N2CCN(c3cnccn3)CC2)cc1` (stereo not given), the IC50 in [1] (setting [19]) worked out at 3.76 µM. Moreover, the Activity entry in data set [2] was “Non-Toxic”.
As to `COc1cccc(C(c2ccc(C(F)(F)F)cc2)N2CCN(c3cnccn3)CC2)c1O` (stereo not given), the selectivity ratio in [3] came to 328; in data set [4], 230; in [11], 39.5; in data set [12] it was 27.7. The IC50 was found to be 3.05 µM in data set [1] (setting [19]); 4.35 µM in data set [5]; 6.2 µM in [7]; 6.8 µM in data set [8]; 120 µM in [10]. Moreover, the Ratio IC50 is 0.7 in [6] and 8.3 in [13]. The result in data set [14] and in data set [15] was Active. Also, the Activity result in [9] and in [2] was “Non-Toxic” throughout.
For `CC(C)C[C@H](NC(=O)[C@H]1O[C@@H]1C(=O)O)C(=O)NCCCCN=C(N)N` [E-64], the values for the half-maximal inhibitory concentration (IC50) in data set [7] and in [8] were 0.0544 µM and 0.116 µM, respectively.
With `COc1cccc(C(c2ccc(Cl)c(Cl)c2)N2CCN(c3cnccn3)CC2)c1O` (stereo not given), the IC50 in data set [1] (setting [19]) came out at 4.62 µM. For the same compound, the Activity entry in [2] was “Non-Toxic”.
On the same counts, the results for `COc1cccc(C(c2ccc(F)cc2)N2CCN(c3cnccn3)CC2)c1O` (stereo not given) are above 12.5 µM and “Non-Toxic”.
Take `Oc1ccccc1C(c1ccc(Cl)c(Cl)c1)N1CCN(c2cnccn2)CC1` (stereo not given): the selectivity ratio in data set [3] was 356; in data set [4], 244; in [11] it was 21.9; in data set [12] it was 15. In addition, the IC50 in data set [1] (setting [19]) is 2.81 µM; in data set [5], 4.1 µM; in data set [7] it was 6.6 µM; in data set [8], 6.9 µM; in [10], 61.4 µM. Besides, the Ratio IC50 in data set [6] is 0.68; in [13], 16.29. The outcome in data set [14] and in data set [15] was Active. The Activity entry in data set [9] and in data set [2] was “Non-Toxic” in each case.
As for `FC(F)Oc1ccc(-c2nnc3cncc(OCCc4ccccc4)n23)cc1`, the IC50 in data set [16] stood at 0.31 µM; in [17], 0.54 µM.
Turning to `Oc1ccccc1C(c1ccc(F)cc1)N1CCN(c2cnccn2)CC1` (stereo not given), in data set [1], the IC50 result is given as “Not Determined(Insoluble)”. In addition, the Activity entry in [2] was “Non-Toxic”.
Take `Oc1ccccc1C(c1ccc(F)c(Cl)c1)N1CCN(c2cnccn2)CC1` (stereo not given): in [1] (setting [19]), the IC50 was 4.1 µM. Besides, in data set [2], the Activity result is “Non-Toxic”.
In the case of `COc1cccc(C(c2ccc(F)c(Cl)c2)N2CCN(c3cnccn3)CC2)c1O` (stereo not given), the IC50 in data set [1] (setting [19]) worked out at 7.32 µM. Besides, the Activity result in data set [2] is on record as “Non-Toxic”.
Consider `Oc1ccccc1C(c1ccc(C(F)(F)F)cc1)N1CCN(c2cnccn2)CC1` (stereo not given), for which the selectivity ratio amounted to 562 in data set [3], 31.9 in [4], 33.4 in data set [11] and 1.89 in data set [12]. Also, the half-inhibitory concentration (IC50) worked out at 1.78 µM in data set [1] (setting [19]); 31.4 µM in data set [5]; 8.5 µM in data set [7]; 9.6 µM in [8]; 59.5 µM in data set [10]. Also, the Ratio IC50 in [6] worked out at 0.06; in data set [13], 16.8. Besides, the result in [14] and in data set [15] was Active. The Activity result in [9] and in [2] was “Non-Toxic” throughout.
Compound `CCc1nc(N)nc(N)c1-c1ccc(Cl)cc1` [PYRIMETHAMINE] displayed an IC50 in [18] of 0.015 µM.
As for `CCN(CC)CCCC(C)Nc1ccnc2cc(Cl)ccc12` (stereo not given) [CHLOROQUINE], the Activity result in data set [2] was “Non-Toxic”.
Regarding `Oc1ccccc1C(c1ccc(F)c(F)c1)N1CCN(c2cnccn2)CC1` (stereo not given), in data set [1] (setting [19]), the half-maximal inhibitory concentration (IC50) is 3.91 µM. In addition, the Activity entry in data set [2] is “Non-Toxic”.
